# ChEMBL document CHEMBL5465560, “Selectivity Literature for EUbOPEN Chemogenomic Library” (2024)
# Assays:
# [1] = target: RAC-beta serine/threonine-protein kinase (Homo sapiens) (UniProt P31751); test: Selectivity interaction (SelectScreen profiling (Invitrogen)) EUB0000607a AKT2; settings: at 2 µM
# [2] = target: Receptor tyrosine-protein kinase erbB-3 (Homo sapiens) (UniProt P21860); test: Selectivity interaction (KinomeScan (DiscoverX)) EUB0000607a ERBB3; settings: at 10 µM
# [3] = target: Hepatocyte growth factor-like protein (Homo sapiens) (UniProt P26927); test: Selectivity interaction (KinomeScan (DiscoverX)) EUB0000607a MST1; settings: at 10 µM
# [4] = target: T1, Serine/threonine-protein kinase DCLK3 (Homo sapiens) (UniProt Q9C098); settings: at 10 µM
# T1 sequence (whole entry): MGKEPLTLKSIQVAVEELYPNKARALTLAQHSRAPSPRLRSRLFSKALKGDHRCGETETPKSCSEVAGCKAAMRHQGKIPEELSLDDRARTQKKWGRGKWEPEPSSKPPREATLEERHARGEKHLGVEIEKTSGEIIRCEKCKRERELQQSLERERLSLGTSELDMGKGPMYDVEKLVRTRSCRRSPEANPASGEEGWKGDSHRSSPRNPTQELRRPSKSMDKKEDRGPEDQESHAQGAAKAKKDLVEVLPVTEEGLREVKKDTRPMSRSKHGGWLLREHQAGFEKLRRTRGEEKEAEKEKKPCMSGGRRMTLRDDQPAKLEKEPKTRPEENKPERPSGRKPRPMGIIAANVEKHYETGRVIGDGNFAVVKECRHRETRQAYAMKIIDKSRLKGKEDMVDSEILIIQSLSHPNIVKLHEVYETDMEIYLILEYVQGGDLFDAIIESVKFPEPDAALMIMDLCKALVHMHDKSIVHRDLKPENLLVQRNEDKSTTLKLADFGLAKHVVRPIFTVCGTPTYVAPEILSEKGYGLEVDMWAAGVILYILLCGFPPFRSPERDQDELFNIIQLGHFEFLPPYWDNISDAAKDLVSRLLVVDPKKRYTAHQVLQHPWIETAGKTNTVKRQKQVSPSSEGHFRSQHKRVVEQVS
# [5] = target: Dual specificity mitogen-activated protein kinase kinase 2 (Homo sapiens) (UniProt P36507); test: Selectivity interaction (ActivX KiNativ screen (kinase selectivity in THP-1 cell lysates)) EUB0000639a MAP2K2; format: subcellular; settings: lysate, at 5 µM
# Sequence of Dual specificity mitogen-activated protein kinase kinase 2 (Homo sapiens) (P36507 whole entry): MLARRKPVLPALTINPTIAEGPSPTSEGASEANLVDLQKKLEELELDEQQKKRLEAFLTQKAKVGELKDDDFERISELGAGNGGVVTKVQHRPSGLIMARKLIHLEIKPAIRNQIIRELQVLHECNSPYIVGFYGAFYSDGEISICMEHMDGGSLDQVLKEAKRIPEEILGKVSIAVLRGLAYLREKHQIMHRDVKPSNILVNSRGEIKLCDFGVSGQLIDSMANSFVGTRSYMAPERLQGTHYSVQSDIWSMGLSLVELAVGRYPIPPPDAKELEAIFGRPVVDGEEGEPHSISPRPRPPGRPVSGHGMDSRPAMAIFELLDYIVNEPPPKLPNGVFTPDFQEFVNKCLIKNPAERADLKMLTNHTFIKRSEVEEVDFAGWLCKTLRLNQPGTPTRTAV
# [6] = target: T2, Inhibitor of nuclear factor kappa-B kinase subunit alpha (Homo sapiens) (UniProt O15111); test: Selectivity interaction (KinomeScan (DiscoverX)) EUB0000595a CHUK; settings: at 10 µM
# T2 sequence (whole entry): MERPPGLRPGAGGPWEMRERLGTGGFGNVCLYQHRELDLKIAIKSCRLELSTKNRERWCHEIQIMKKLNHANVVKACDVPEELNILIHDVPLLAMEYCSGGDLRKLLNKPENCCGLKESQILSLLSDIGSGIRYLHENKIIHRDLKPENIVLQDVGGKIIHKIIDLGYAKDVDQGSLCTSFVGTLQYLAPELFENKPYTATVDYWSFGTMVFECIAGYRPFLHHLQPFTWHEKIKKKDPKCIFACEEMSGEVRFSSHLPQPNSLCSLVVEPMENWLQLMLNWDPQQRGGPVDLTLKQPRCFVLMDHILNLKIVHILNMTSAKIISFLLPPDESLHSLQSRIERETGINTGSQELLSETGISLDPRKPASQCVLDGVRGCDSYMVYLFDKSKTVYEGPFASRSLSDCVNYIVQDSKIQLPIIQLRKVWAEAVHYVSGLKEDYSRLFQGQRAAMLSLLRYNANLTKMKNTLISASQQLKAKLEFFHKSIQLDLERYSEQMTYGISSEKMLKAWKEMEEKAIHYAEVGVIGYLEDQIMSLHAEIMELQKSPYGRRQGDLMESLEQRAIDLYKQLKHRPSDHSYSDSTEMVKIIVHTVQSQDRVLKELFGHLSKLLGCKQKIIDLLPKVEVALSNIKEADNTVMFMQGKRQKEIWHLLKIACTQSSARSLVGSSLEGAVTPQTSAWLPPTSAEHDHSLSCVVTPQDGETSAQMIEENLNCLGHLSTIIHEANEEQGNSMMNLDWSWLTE
# [7] = target: Platelet-derived growth factor receptor beta (Homo sapiens, UniProt P09619); test: Selectivity interaction (Millipore kinase profiler) EUB0000124b PDGFRB; settings: at 10 µM
# Sequence of Platelet-derived growth factor receptor beta (P09619 whole entry): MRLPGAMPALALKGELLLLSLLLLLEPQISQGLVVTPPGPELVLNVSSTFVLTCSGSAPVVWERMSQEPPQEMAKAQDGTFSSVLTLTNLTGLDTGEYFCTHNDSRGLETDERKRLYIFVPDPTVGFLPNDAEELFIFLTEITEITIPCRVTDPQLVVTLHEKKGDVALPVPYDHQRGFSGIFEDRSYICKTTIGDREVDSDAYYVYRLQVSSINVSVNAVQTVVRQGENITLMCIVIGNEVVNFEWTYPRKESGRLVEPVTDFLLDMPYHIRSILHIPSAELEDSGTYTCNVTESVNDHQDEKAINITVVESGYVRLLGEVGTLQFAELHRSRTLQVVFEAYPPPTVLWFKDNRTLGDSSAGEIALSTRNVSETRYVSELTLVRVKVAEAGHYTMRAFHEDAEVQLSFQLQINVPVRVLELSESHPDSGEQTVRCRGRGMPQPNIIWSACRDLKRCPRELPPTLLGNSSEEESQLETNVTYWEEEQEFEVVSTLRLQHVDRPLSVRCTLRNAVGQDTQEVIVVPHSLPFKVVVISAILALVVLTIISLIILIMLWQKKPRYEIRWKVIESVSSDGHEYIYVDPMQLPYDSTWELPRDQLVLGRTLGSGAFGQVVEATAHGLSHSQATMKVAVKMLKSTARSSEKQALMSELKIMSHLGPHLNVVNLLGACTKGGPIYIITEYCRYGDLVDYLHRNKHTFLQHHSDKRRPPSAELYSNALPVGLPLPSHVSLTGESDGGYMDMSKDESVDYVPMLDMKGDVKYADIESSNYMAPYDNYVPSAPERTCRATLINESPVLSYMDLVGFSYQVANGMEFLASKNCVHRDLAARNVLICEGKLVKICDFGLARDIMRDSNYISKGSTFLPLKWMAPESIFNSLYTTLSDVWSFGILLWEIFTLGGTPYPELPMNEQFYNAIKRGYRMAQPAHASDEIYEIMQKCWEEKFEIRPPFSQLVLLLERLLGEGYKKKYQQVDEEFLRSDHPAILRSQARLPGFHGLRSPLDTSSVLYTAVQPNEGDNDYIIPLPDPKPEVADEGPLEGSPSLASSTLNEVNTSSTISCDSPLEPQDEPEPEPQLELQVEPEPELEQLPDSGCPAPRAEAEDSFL
# [8] = target: Serine/threonine-protein kinase Nek6 (Homo sapiens) (UniProt Q9HC98); test: Selectivity interaction (Ambit KINOMEscan and KiNATiv profiling in Jurkat cells) EUB0000090b NEK6; format: cell-based; settings: at 1 µM
# Sequence of Serine/threonine-protein kinase Nek6 (Homo sapiens) (Q9HC98 whole entry): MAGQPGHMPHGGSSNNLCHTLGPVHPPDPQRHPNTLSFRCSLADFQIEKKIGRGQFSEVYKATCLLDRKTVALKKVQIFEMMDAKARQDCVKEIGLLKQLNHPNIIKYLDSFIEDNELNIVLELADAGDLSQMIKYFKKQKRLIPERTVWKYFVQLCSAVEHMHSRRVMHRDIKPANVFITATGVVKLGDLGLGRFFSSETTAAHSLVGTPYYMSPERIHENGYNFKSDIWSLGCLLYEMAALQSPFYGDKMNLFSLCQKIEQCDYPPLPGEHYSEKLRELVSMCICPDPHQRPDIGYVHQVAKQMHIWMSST
# [9] = target: T3, Inhibitor of nuclear factor kappa-B kinase subunit beta (Homo sapiens) (UniProt O14920); test: Selectivity interaction (KinomeScan (DiscoverX)) EUB0000045b IKBKB
# T3 sequence (whole entry): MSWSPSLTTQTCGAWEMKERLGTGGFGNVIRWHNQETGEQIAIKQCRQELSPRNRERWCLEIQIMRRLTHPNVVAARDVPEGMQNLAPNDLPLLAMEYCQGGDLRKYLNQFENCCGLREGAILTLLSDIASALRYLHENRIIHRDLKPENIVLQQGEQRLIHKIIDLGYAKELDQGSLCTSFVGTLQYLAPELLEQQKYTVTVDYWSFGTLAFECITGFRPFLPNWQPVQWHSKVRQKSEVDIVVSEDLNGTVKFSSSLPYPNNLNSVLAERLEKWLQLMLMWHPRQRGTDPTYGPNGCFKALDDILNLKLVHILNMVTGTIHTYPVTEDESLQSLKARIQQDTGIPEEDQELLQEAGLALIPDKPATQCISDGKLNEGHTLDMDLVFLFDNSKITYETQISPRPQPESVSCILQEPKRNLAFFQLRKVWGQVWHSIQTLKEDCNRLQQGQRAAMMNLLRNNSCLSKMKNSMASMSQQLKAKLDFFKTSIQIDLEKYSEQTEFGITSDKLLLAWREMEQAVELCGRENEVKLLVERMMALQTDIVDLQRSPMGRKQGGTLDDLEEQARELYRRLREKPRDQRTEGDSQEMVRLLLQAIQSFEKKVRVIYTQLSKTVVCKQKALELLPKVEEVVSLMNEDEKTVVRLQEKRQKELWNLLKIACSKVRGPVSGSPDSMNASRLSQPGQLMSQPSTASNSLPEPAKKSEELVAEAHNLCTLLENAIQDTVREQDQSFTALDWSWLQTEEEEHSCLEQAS
# [10] = target: Cyclin-dependent kinase 17 (Homo sapiens) (UniProt Q00537); test: Selectivity interaction (Kinase panel (KiNativ target engagement assay in Jurkat cells)) EUB0001635a CDK17; format: cell-based; settings: Selectivity number of off-targets 0.0, Selectivity number of targets 233.0, Source Knowledge https://www.sciencedirect.com/science/article/pii/S2451945619300674?via%3Dihub, at 1 µM
# Sequence of Cyclin-dependent kinase 17 (Homo sapiens) (Q00537 whole entry, looked up): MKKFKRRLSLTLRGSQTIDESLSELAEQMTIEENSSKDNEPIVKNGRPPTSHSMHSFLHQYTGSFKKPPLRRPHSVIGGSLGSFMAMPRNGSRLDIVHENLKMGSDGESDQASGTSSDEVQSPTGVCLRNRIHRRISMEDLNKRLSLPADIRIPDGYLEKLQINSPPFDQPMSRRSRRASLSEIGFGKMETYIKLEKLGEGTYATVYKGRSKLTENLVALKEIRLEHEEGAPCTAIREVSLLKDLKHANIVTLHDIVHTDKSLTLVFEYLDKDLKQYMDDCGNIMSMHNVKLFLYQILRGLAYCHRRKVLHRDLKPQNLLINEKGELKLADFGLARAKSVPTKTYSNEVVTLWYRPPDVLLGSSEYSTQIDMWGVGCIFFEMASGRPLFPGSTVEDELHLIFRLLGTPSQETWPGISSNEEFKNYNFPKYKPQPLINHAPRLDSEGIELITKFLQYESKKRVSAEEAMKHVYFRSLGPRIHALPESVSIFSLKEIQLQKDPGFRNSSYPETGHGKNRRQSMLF
# [11] = target: Serine/threonine-protein kinase OSR1 (Homo sapiens) (UniProt O95747); test: Selectivity interaction (KinomeScan (DiscoverX)) EUB0000229b OXSR1; settings: at 10 µM
# Sequence of Serine/threonine-protein kinase OSR1 (Homo sapiens) (O95747 2-527 limits assumed): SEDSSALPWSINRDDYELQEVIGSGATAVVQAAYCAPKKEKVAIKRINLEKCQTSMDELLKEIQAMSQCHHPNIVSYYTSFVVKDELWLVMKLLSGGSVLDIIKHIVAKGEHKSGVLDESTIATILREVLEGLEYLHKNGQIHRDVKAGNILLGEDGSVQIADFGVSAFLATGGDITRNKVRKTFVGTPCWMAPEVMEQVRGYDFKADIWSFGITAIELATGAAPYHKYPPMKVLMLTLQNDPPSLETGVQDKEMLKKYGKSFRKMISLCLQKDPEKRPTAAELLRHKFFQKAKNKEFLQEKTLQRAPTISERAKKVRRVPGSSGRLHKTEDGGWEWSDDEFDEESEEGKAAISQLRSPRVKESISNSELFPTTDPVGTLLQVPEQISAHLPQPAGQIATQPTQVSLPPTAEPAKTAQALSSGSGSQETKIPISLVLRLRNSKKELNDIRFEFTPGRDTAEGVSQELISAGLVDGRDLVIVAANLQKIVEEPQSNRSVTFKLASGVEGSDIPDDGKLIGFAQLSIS
# [12] = Selectivity interaction (KinomeScan (DiscoverX)) EUB0000618a PKNB; settings: at 10 µM
# Sequence of RAC-beta serine/threonine-protein kinase (Homo sapiens) (P31751 whole entry): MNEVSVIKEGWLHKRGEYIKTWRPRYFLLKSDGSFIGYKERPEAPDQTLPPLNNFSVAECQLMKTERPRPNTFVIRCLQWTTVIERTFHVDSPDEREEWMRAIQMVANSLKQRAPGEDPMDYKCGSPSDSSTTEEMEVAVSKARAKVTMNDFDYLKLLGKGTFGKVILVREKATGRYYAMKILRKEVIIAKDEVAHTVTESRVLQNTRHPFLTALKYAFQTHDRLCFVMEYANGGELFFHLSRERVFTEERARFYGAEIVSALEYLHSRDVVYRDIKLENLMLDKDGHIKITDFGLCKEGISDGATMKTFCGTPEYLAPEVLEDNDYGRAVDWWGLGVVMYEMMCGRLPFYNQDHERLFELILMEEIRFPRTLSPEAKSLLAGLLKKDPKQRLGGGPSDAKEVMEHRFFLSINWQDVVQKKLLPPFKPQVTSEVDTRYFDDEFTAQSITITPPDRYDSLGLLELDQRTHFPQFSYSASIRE
# Sequence of Receptor tyrosine-protein kinase erbB-3 (Homo sapiens) (P21860 whole entry): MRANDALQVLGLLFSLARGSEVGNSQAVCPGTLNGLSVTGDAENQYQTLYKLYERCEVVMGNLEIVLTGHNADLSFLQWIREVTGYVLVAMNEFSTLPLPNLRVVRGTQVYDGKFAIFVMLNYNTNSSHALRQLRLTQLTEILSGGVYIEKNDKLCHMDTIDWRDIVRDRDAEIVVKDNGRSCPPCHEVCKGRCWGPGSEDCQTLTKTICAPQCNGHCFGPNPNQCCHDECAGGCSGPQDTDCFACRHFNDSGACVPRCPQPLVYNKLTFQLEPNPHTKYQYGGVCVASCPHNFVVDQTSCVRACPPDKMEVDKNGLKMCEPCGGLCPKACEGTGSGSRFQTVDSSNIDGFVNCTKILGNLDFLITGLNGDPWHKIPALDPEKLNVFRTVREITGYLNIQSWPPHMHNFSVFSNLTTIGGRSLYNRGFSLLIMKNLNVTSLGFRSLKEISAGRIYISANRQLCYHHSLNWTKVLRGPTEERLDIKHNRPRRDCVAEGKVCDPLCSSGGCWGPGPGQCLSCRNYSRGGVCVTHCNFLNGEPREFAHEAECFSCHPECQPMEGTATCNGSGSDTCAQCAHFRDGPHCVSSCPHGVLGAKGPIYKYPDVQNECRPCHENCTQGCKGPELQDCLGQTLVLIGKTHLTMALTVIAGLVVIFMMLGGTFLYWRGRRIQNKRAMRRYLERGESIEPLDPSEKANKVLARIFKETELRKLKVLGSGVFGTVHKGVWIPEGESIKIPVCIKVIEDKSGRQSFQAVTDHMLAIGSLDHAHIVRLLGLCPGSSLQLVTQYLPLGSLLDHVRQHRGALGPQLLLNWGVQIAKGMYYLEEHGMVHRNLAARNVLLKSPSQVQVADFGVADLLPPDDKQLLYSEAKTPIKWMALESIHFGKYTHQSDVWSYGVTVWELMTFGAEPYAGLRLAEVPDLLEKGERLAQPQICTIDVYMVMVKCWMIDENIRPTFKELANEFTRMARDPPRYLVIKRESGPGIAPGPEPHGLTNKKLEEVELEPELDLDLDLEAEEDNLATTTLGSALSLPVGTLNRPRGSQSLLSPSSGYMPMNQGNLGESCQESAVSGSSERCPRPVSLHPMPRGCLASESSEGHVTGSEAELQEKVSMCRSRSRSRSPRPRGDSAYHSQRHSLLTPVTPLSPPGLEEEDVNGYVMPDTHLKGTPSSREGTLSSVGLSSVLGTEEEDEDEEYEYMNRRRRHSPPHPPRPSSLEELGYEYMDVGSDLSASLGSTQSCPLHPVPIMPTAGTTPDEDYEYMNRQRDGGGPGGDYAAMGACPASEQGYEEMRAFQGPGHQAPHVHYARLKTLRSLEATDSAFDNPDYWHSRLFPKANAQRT
structure (smiles),measurement,setting,value
CNC(=O)Nc1ccc(-c2nc(N3CC4CCC(C3)O4)c3cnn(C4CCC5(CC4)OCCO5)c3n2)cc1,% of inhibition,[1],5%
same,% of control,[2],100%
same,% of control,[3],100%
CCN(CC)CCCCNc1ncc2cc(-c3cc(OC)cc(OC)c3)c(NC(=O)NC(C)(C)C)nc2n1,% of control,[4],100%
CC[C@@H]1[C@H](F)C(=O)N[C@@H]1COc1nccc2cc(C(N)=O)c(OC)cc12 [ZIMLOVISERTIB],% of inhibition,[5],-10.6%
COCC(=O)NC/C=C/c1ccc2ncnc(Nc3ccc(Oc4ccc(C)nc4)c(C)c3)c2c1 [CP-724714],% of control,[6],100%
CC(=O)Nc1cccc(-n2c(=O)n(C3CC3)c(=O)c3c(Nc4ccc(I)cc4F)n(C)c(=O)c(C)c32)c1,% of control,[7],111%
CN(C)C/C=C/C(=O)Nc1ccc(C(=O)N2CCCC(Nc3ncc(Cl)c(-c4c[nH]c5ccccc45)n3)C2)cc1 (stereo not drawn),% of control,[8],95%
C=CC(=O)Nc1cc(-n2c(=O)ccc3cnc4ccc(-c5ccc(NS(C)(=O)=O)cc5)cc4c32)ccc1C,% of control,[9]; at 1 µM,93%
same,% of control,[9]; at 10 µM,100%
C=CC(=O)Nc1ccc(C(=O)Nc2[nH]nc3c2CN(C(=O)N[C@H](CN(C)C)c2ccccc2)C3(C)C)cc1,% of engagement,[10],12.8%
COc1cc(N(C)c2ccnc3ccc(C(F)(F)F)cc23)cc(OC)c1OC,% binding,[11],79%
O[C@H]1CC[C@H](Nc2ncc3nc(Nc4c(F)cc(F)cc4F)n([C@H]4CCOC4)c3n2)CC1,% of control,[12],92%
